Measured values reported in ChEMBL document CHEMBL2424534, “Design and synthesis of non-TZD peroxisome proliferator-activated receptor (PPAR) modulator” (2013).

Assays:
3T3-L1 [1] = assay: Induction of insulin-stimulated [14C]deoxy-glucose uptake in mouse 3T3L1 cells pretreated at 10 uM for 24 hrs before insulin stimulation by scintillation counting relative to vehicle-treated control; assay type: functional
[2] = biological target: T1, Peroxisome proliferator-activated receptor gamma (Homo sapiens) (UniProt P37231); assay: Agonist activity at PPARgamma (unknown origin) transfected in HEK293 cells assessed as transcriptional activity at 10 uM relative to rosiglitazone; assay type: cell-based
T1 sequence (whole entry): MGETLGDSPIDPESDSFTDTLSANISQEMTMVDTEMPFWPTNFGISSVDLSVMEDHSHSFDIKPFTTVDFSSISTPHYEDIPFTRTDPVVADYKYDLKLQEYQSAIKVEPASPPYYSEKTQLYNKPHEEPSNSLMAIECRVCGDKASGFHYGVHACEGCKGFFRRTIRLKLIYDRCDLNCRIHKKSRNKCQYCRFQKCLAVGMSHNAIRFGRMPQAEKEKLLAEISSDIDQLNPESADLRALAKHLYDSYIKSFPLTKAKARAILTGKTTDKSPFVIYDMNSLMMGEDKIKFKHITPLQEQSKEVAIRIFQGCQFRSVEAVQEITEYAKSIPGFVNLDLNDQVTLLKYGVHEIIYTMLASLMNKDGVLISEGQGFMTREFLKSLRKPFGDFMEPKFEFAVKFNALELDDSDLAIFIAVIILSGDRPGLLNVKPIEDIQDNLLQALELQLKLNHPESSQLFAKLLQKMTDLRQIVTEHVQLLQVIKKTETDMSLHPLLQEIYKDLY

[3] = biological target: T1, Peroxisome proliferator-activated receptor gamma (Homo sapiens); assay: Binding affinity to PPARgamma (unknown origin) at 10 uM by Polarscreen competitor assay relative to rosiglitazone
3T3-L1 [4] = assay: Induction of adipogenesis in mouse 3T3L1 cells at 20 ug/ml by microscopic analysis relative to rosiglitazone; assay type: functional

Emax [2] [%] | Imax [3] [%] | SMILES | fold change (FC) (3T3-L1 [1]) | Emax at 20 µg/mL (3T3-L1 [4]) [%]
13 | 76 | O=S(=O)(Nc1cnc(OC2CCN(c3ccccc3)CC2)c(Cl)c1)c1ccc(-c2ccccn2)s1 | 0.93 | 15
10 | 79 | O=S(=O)(Nc1cnc(OC2CCN(c3ccccc3)CC2)c(Cl)c1)c1ccc(F)c(Cl)c1 | 0.98 | 20
14 | 98 | O=S(=O)(Nc1cnc(OC2CCN(c3ccccc3)CC2)c(Cl)c1)c1ccc(C(F)(F)F)cc1 | 0.99 | 20
14 | 79 | O=S(=O)(Nc1cnc(OC2CCN(c3ccccc3)CC2)c(Cl)c1)c1ccc(Cl)cc1Cl | 1.26 | 18

Second part, the molecule before the results:

SMILES | Emax [2] [%] | Imax [3] [%] | fold change (FC) (3T3-L1 [1]) | Emax at 20 µg/mL (3T3-L1 [4]) [%]
COc1ccc(S(=O)(=O)Nc2cnc(OC3CCN(c4ccccc4)CC3)c(Cl)c2)cc1 | 15 | 47 | 1.12 | 30
Cc1ccccc1S(=O)(=O)Nc1cnc(OC2CCN(c3ccccc3)CC2)c(Cl)c1 | 12 | 72 | 0.97 | 22
CN(CCOc1ncc(NS(=O)(=O)c2ccc(Cl)cc2Cl)cc1Cl)c1nc2ccccc2o1 | 16 | 82 | 1.12 | 22
COc1ccc(S(=O)(=O)Nc2cnc(OC3CCN(c4ccccc4)CC3)c(Cl)c2)c(OC)c1 | 17 | 51 | 1.44 | 20
N#Cc1ccc(S(=O)(=O)Nc2cnc(OC3CCN(c4ccccc4)CC3)c(Cl)c2)cc1 | 11 | 37 | 1.07 | 20
CN(CCOc1ccc(NS(=O)(=O)c2ccc(Cl)c(Cl)c2)cn1)c1nc2ccccc2o1 | 14 | 78 | 1.02 | 20
O=S(=O)(Nc1cnc(OC2CCN(c3ccccc3)CC2)c(Cl)c1)c1ccc(F)cc1F | 12 | 78 | 1.12 | 21
